For experiment [1], the target named is T1, bLinS; linalool synthase; linalool/nerolidol synthase (Streptomyces clavuligerus, UniProt D5SL78).
T1 construct: gene SCLAV_p1185; full-length codon-optimized gene in pETM11, N-terminal 6xHis tag and TEV site, tag cleaved; E. coli ArcticExpress (DE3); ~330 residues; two molecules in asymmetric unit
T1 sequence (D5SL78 1-329): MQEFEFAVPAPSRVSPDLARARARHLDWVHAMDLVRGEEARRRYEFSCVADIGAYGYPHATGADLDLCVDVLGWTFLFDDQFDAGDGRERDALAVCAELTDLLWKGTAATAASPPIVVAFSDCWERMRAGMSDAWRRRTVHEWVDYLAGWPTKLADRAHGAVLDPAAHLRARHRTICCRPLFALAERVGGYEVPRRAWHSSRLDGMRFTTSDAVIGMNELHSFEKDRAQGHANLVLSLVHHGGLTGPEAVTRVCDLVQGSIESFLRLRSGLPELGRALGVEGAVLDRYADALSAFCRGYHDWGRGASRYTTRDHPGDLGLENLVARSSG
The experiment in a line: X-ray crystal structure, co-crystal; EPR with Mn2+. The conditions noted are these: 1.82 A; FGPP in monomer A only; one Mg2+; noncatalytic mode suggested; pH 7.5. The experiment is classed as binding.

The target in experiment [2] is T2, bCinS; 1,8-cineole synthase (Streptomyces clavuligerus, UniProt B5GMG2).
T2 construct: gene cnsA; full-length codon-optimized gene in pETM11, N-terminal 6xHis tag and TEV site, tag cleaved; E. coli ArcticExpress (DE3); ~330 residues; dimer
T2 sequence (B5GMG2 whole entry): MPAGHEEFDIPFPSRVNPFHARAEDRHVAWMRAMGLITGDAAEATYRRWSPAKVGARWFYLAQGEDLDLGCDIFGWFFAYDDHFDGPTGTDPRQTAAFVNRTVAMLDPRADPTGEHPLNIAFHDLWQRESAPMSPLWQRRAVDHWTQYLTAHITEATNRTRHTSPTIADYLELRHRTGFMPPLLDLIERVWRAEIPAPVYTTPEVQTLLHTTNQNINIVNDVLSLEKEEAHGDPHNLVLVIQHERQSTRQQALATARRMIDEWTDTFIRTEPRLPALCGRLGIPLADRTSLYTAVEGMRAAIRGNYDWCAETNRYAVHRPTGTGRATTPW
The experiment in a line: X-ray crystal structure, FGPP soaked into FNPP co-crystal; EPR with Mn2+. Type of experiment: binding. Conditions: 1.51 A; partial exchange, mixed FNPP/FGPP occupancy; three Mg2+ (third partly occupied); active site.

Experiment [3] deals with T1, bLinS; linalool synthase; linalool/nerolidol synthase. Briefly: product analysis by GC-MS in engineered E. coli; chiral GC. Type of experiment: cell-based. The conditions noted are these: host-made FPP in E. coli expressing bLinS; product trans-nerolidol.

SMILES strings stand for the structures.

With `CC(C)=CCC/C(C)=C(\F)COP(=O)(O)OP(=O)(O)O` [FGPP, 2-fluorogeranyl pyrophosphate], in experiment [1], the “X-ray crystal structure, co-crystal; EPR with Mn2+” value is given as “clear electron density corresponding to FGPP is only present in monomer A”. Further, in experiment [2], the “X-ray crystal structure, FGPP soaked into FNPP co-crystal; EPR with Mn2+” value is on record as “Soaking of the bCinS-FNPP crystals with FGPP led to the partial exchange”.
Consider `CC(C)=CCC/C(C)=C/CC/C(C)=C/COP(=O)(O)OP(=O)(O)O` [FPP, farnesyl pyrophosphate], for which the “product analysis by GC-MS in engineered E. coli; chiral GC” value in experiment [3] is recorded as “Strains containing bLinS were able to convert FPP to nerolidol”.

The values are drawn from publication PMC5617326, “Structural Basis of Catalysis in the Bacterial Monoterpene Synthases Linalool Synthase and 1,8-Cineole Synthase” (ACS Catalysis, 2017).
